Source: patent US5173498A, “Substituted 3-thia- and 3-oxa-alkylflavones, a process for their preparation, the use thereof, medicaments based on these compounds and intermediates” (Hoechst Aktiengesellschaft, priority 1990, dated 1992)

Columns and labels:
[1] = test system: LDL; test: Inhibition of Cu^2+-catalyzed LDL oxidation (increase in fluorescence at 430 nm); type: biochemical, pigs; conditions: Table I; 50% inhibition of fluorescence increase at 430 nm; 5 μM Cu^2+, 2 hours, 37° C., pH 7.4; LDL 0.1 mg protein/ml
Description: The method for testing the antioxidant action of the substances is based on the inhibition of the Cu^2+ -catalyzed oxidation of LDL by active compounds, the increase in fluorescence at 430 nm serving as a measure of the LDL oxidation (U.P. Steinbrecher, J. Biol. Chem. 262. 3603 (1987)).
Blood from freshly slaughtered pigs, which was collected in the presence of EDTA (1 mg/ml) and NaN3 (0.1 mg/ml) and then centrifuged for 20 min at 2,000×g and 4° C. in order to remove the cellular constituents, was used for isolation of the LDL. Stepwise ultracentrifuging of the plasma in NaCl/NaBr solutions having densities of d=1.019 and d=1.063 yielded the LDL fraction (R. J. Havel, H. A. Eder and J. H. Bragdon, J. Clin. Investig. 34, 1345 (1955)). In this method the samples were centrifuged in a 50.2 Ti fixed angle rotor (Beckman Instruments) in each case for 18 hours at 300,000×g and 17° C. In order to lower the EDTA concentration, the LDL fraction obtained in this way had to be subjected for 48 hours to two dialyses in 100 times the volume of a phosphate-buffered saline solution (160 mM NaCl, 10 mM NaH2 PO4) of pH 7.4 (U. P. Steinbrecher, J. L. Witztum, S. Parthasarathy and D. Steinberg, Arteriosclerosis 7, 135 (1987)).
For the oxidation tests, the LDL fraction, which was stored at 4° C., was diluted to 0.1 mg of protein/ml using the dialysis buffer of the abovementioned composition. 2.5 ml of this LDL solution were treated with 25 μl of ethanolic solution having various concentrations of the test substance and the samples were incubated in closed vessels under nitrogen for 1 hour at 37° C., in order initially to achieve an adequate incorporation of the substance in the LDL particles (L. R. McLean and K. A. Hagaman, Biochemistry 28, 321 (1989)). The maximum concentration of the test compounds was 10 μM in the test.
The oxidation of the LDL was effected by adding 12.5 μl of a 1 mM CuSO4 solution, i.e. 5 μM Cu^2+ in the test, and incubating for two hours at 37° C. in cell culture dishes open to the air. The controls contained 25 μl of pure ethanol. To determine the blank, analogously prepared LDL samples were treated with 12.5 μl of a solution of 1 mM CuSO4 and 40 mM EDTA and likewise incubated for 2 hours at 37° C.
After the end of the incubation, the fluorescence intensity emitted at 430 nm was determined in all samples using the excitation wavelength 365 nm (Perkin-Elmer type LS-3 spectrofluorimeter).
The IC50 values, i.e. those molar concentrations which, under the test conditions described, inhibit the increase in fluorescence by 50% (controls =100), were determined for comparison of the strength of action of the antioxidants. For this purpose the fluorescence measurement was carried out as a duplicate determination using, in each case, 5 to 6 different concentrations of the test substance. Plotting the percentage inhibition values on semi-logarithmic paper and graphic interpolation gave the corresponding IC50 (Table I). Vitamin E was used as comparison compound.

[2] = test system: cholesterol biosynthesis in HEP-G2 cells; test: Suppression or inhibition of cholesterol biosynthesis in cell cultures of HEP-G2 cells; type: cell-based; conditions: Homo sapiens, HepG2, Table II, ^14C-cholesterol formed from ^14C-sodium acetate
Description: Monolayers of HEP-G2 cells in lipoprotein-free nutrient medium were preincubated with corresponding concentrations of the test substances for a certain time (e.g. 1 hour) and after addition of the labeled precursor, for example ^14 C-sodium acetate, the incubation was continued (e.g. 3 hours). After addition of an internal standard (^3 H-cholesterol), a portion of the cells was subjected to alkaline saponification. The lipids in the saponified cells were extracted with chloroform/methanol. After addition of carrier cholesterol, this lipid mixture was separated by preparative thin layer chromatography, the cholesterol band was isolated after rendering visible using iodine vapor and the amount of ^14 C-cholesterol formed from the ^14 C-precursor was determined by scintigraphy. Cell protein was determined in a aliquote portion of the cells, so that the amount of ^14 C-cholesterol formed per unit time per mg of cell protein can be calculated. By comparing this value with the amount of ^14 C-cholesterol which was formed per mg of cell protein and per unit time from a culture which was treated in the same way but free from test substance, the inhibitory effect of the particular test preparation on the cholesterol biosynthesis of HEP-G2 cell cultures was obtained. [drawing 12]
Using the method described above, for example, the following inhibitory values for the cholesterol biosynthesis (in HEP-G2 cells) were determined for the compounds according to the invention (the IC50 value in mole/liter is that concentration of the compound which effects a 50% inhibition of the cholesterol biosynthesis) (Tab. II).

Compound | IC50 [1] [nM] | IC50 [2] [nM]
CCCCCCCCCCCCSCc1c(-c2ccc(F)cc2)oc2cc(O)cc(O)c2c1=O [Example 9b] | 12000 | –
CCCCCCCCCCCCCCCCCCSCc1c(-c2ccc(F)cc2)oc2cc(O)cc(O)c2c1=O [Example 9d] | 8000 | –
C/C(=C\CSCc1c(-c2ccc(F)cc2)oc2cc(O)cc(O)c2c1=O)CCC[C@H](C)CCC[C@H](C)CCCC(C)C [Example 9e] | 330 | 10
C/C(=C\CSCc1c(-c2ccc(O)cc2)oc2cc(O)cc(O)c2c1=O)CCC[C@H](C)CCC[C@H](C)CCCC(C)C [Example 9i] | 900 | 9
CC(C)=CCC/C(C)=C/CC/C(C)=C/CSCc1c(-c2ccc(F)cc2)oc2cc(O)cc(O)c2c1=O [Example 9l] | – | 80
COc1ccc(-c2oc3cc(O)cc(O)c3c(=O)c2CSC/C=C(\C)CC/C=C(\C)CCC=C(C)C)cc1 [Example 9m] | – | 80
Vitamin E [reference compound] | 4800 | –
